Measured values from ChEMBL document CHEMBL1201862, “PubChem BioAssay data set” (2004).
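In this assay, cells in 96-well plates receive the compound at five concentrations for 48 hours. Endpoints are linearly interpolated between the surrounding concentrations. Here, GI50 denotes the concentration required for 50% inhibition of growth.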 Calls of active or inactive are those of the source. Rule as the data show it: active = GI50 up to about 1.1 µM and inactive = higher.

Columns and labels:
Assay in all cases: NCI-60 cell line screen, 48 h
MOLT-4 = system: MOLT-4
MDA-MB-231 = system: MDA-MB-231
KM12 = system: KM12
K562 = system: K562
ACHN = system: ACHN
SNB-19 = system: SNB-19
HCT-15 = system: HCT-15
OVCAR-5 = system: OVCAR-5
BT-549 = system: BT-549
SK-MEL-28 = system: SK-MEL-28
CAKI-1 = system: CAKI-1
PC-3 = system: PC-3
SN12C = system: SN12C
HCT-116 = system: HCT-116
OVCAR-4 = system: OVCAR-4
SF-539 = system: SF-539
SF-268 = system: SF-268
HL-60 = system: HL-60
RXF 393 = system: RXF 393
M14 = system: M14

SMILES	GI50 (MOLT-4)	GI50 (MDA-MB-231)	GI50 (KM12)	GI50 (K562)	GI50 (ACHN)	GI50 (SNB-19)	GI50 (HCT-15) [µM]	GI50 (OVCAR-5)	GI50 (BT-549)	GI50 (SK-MEL-28)	GI50 (CAKI-1)	GI50 (PC-3)	GI50 (SN12C)	GI50 (HCT-116)	GI50 (OVCAR-4)	GI50 (SF-539)	GI50 (SF-268)	GI50 (HL-60)	GI50 (RXF 393)	GI50 (M14)
COC(=O)[C@@H](NC1(c2ccccc2)c2ccccc2-c2ccccc21)[C@@H](C(=O)OC)N(NC(=O)OCc1ccccc1)C(=O)OCc1ccccc1.COC(=O)[C@@H](NC1(c2ccccc2)c2ccccc2-c2ccccc21)[C@H](C(=O)OC)N(NC(=O)OCc1ccccc1)C(=O)OCc1ccccc1	> 100 µM (inactive)	> 100 µM (inactive)	> 100 µM (inactive)	> 100 µM (inactive)	> 100 µM (inactive)	> 100 µM (inactive)	> 100	> 100 µM (inactive)	> 100 µM (inactive)	> 100 µM (inactive)	> 100 µM (inactive)	> 100 µM (inactive)	> 100 µM (inactive)	> 100 µM (inactive)	> 100 µM (inactive)	> 100 µM (inactive)	> 100 µM (inactive)	> 100 µM (inactive)	> 100 µM (inactive)	> 100 µM (inactive)
C=C(Nc1ccc([N+](=O)[O-])cc1[N+](=O)[O-])c1c/c(=N\NC(N)=S)c2ccccc2o1	42.4 µM (inactive)	26.8 µM (inactive)	59.4 µM (inactive)	–	89.5 µM (inactive)	53 µM (inactive)	51.9	56.9 µM (inactive)	> 100 µM (inactive)	> 100 µM (inactive)	> 100 µM (inactive)	26.1 µM (inactive)	47.6 µM (inactive)	33.7 µM (inactive)	49 µM (inactive)	16.6 µM (inactive)	> 100 µM (inactive)	32.8 µM (inactive)	60.3 µM (inactive)	> 100 µM (inactive)
C/C1=C\[C@@H](C)C[C@@H](C)OC(=O)[C@@H](C)NC(=O)[C@H](Cc2ccc(O)c(Br)c2)N(C)C(=O)CNC(=O)[C@H](C)C1	0.143 µM (active)	< 0.01 µM (active)	–	< 0.01 µM (active)	< 0.01 µM (active)	0.295 µM (active)	< 0.01	13 µM (inactive)	0.0641 µM (active)	0.0284 µM (active)	< 0.01 µM (active)	< 0.01 µM (active)	0.119 µM (active)	< 0.01 µM (active)	< 0.01 µM (active)	< 0.01 µM (active)	< 0.0193 µM (active)	< 0.01 µM (active)	< 0.0184 µM (active)	< 0.0202 µM (active)
CN1CC(c2ccccc2)N(CCCCN2CC(c3ccccc3)N(C)CC2c2ccccc2)CC1c1ccccc1 (stereo unspecified)	23.2 µM (inactive)	58.7 µM (inactive)	50.5 µM (inactive)	19.3 µM (inactive)	> 100 µM (inactive)	54.7 µM (inactive)	29.2	> 100 µM (inactive)	37 µM (inactive)	> 100 µM (inactive)	> 100 µM (inactive)	18.2 µM (inactive)	46.5 µM (inactive)	11.9 µM (inactive)	37.7 µM (inactive)	52.7 µM (inactive)	> 100 µM (inactive)	29.3 µM (inactive)	21.9 µM (inactive)	25.9 µM (inactive)
Nc1nccc2c1ncn2[C@H]1C[C@H](O)[C@@H](CO)O1	> 100 µM (inactive)	> 100 µM (inactive)	> 100 µM (inactive)	> 100 µM (inactive)	–	> 100 µM (inactive)	> 100	> 100 µM (inactive)	> 100 µM (inactive)	> 100 µM (inactive)	> 100 µM (inactive)	> 100 µM (inactive)	> 100 µM (inactive)	> 100 µM (inactive)	> 100 µM (inactive)	–	–	–	> 100 µM (inactive)	> 100 µM (inactive)
COc1ccc2cc(CNCCCCCCCCCCCCNCc3ccc4cc(OC)ccc4c3)ccc2c1	21.5 µM (inactive)	23.5 µM (inactive)	19.2 µM (inactive)	10.4 µM (inactive)	19.6 µM (inactive)	17.5 µM (inactive)	17.6	28.4 µM (inactive)	18.9 µM (inactive)	27.7 µM (inactive)	20.9 µM (inactive)	28.3 µM (inactive)	19.7 µM (inactive)	16.7 µM (inactive)	16.4 µM (inactive)	17.4 µM (inactive)	8.04 µM (inactive)	10.4 µM (inactive)	14.8 µM (inactive)	17.4 µM (inactive)
O=c1[nH]c2ccccc2n1CCCN1CCC(n2c(=O)[nH]c3cc(Cl)ccc32)CC1 [DOMPERIDONE]	13.9 µM (inactive)	17.6 µM (inactive)	16.9 µM (inactive)	21.4 µM (inactive)	18.8 µM (inactive)	–	18.7	20.2 µM (inactive)	18 µM (inactive)	17 µM (inactive)	15.7 µM (inactive)	19.4 µM (inactive)	16.3 µM (inactive)	16.8 µM (inactive)	17.2 µM (inactive)	–	–	17.3 µM (inactive)	16 µM (inactive)	16 µM (inactive)
